# Test results taken from patent publication US20110306778A1, “CRYSTAL OF SPIROKETAL DERIVATIVES AND PROCESS FOR PREPARATION OF SPIROKETAL DERIVATIVES” (priority 2008, published 2011).
# How the values were obtained:
# [1] = Storage stability test (total amount of impurities by HPLC after storage in thermostatic chambers); type: physicochemical; settings: for Course of the total amounts of impurities during storage: both at 25° C. and 40° C.
# Protocol: A storage stability test was carried out for monohydrate crystal and an amorphous form of the compound of Formula (XI). The monohydrate crystal of the compound of Formula (XI) was prepared according to the procedure of Example 1, Step 7. The amorphous form of the compound of Formula (XI) was obtained by the following procedure. The monohydrate crystal of the compound (15 g) was melted by heating on hot-stage, and allowed to be cooled to room temperature in a humidity-controlled desiccator (25° C./dry). The resulting solid was grinded in mortar to give a sample used as an amorphous form. The samples were stored in thermostatic chambers at 25° C. or 40° C., and the purity each of the samples was observed after 1 month, 3 months and 6 months.
# The purity was determined in the following procedure. A portion each of the samples was weighed precisely (ca. 6 mg) and dissolved in a mixture of water and methanol (1:1) to be 10 mL accurately. The resulting solutions were used as sample solutions, and a portion (10 μL) each of the sample solutions was subjected to HPLC analysis. A total amount of impurities were calculated according to the following formula.
# Measurement Condition of HPLC
# Device: 2695 Separations Module (manufactured by Waters), 2487 Dual k Absorbance Detector (manufactured by Waters) or 996 Photodiode Array Detector (manufactured by Waters)
# Column: YMC-Pack ODS-AM AM-302-3, 4.6 mm I.D.×15 cm, particle size 3 μm (manufactured by YMC)
# Mobile phase: Eluent A=methanol, Eluent B=water
# Gradient operation: Eluent A: 55% (15 min), Eluent A: 55% to 100% (10 min), 100% (5 min)
# Detection wavelength: 220 nm
# Sample cooler temperature: 5° C.
# Period for measuring peak area: 30 minutes after injection
# (§1) A storage stability test was carried out for co-crystal of the compound of Formula (XI) with sodium acetate according to the procedure of Test Example 2. The co-crystal of the compound of Formula (XI) with sodium acetate was prepared according to the procedure of Example 5. The samples were stored in thermostatic chambers at 25° C. or 40° C., and the purity each of the samples was observed after 1 month and 3 months. The measurement results were compared with those for the amorphous form obtained in Test Example 2.
# as §1, with “potassium” for “sodium”, “6.” for “5.”
# [2] = molecular target: T1, SGLT2 (Homo sapiens, UniProt P31639); settings: statement of Patent Document 1 (WO 2006/080421 A1); cited from earlier work
# T1 sequence (P31639 1-672): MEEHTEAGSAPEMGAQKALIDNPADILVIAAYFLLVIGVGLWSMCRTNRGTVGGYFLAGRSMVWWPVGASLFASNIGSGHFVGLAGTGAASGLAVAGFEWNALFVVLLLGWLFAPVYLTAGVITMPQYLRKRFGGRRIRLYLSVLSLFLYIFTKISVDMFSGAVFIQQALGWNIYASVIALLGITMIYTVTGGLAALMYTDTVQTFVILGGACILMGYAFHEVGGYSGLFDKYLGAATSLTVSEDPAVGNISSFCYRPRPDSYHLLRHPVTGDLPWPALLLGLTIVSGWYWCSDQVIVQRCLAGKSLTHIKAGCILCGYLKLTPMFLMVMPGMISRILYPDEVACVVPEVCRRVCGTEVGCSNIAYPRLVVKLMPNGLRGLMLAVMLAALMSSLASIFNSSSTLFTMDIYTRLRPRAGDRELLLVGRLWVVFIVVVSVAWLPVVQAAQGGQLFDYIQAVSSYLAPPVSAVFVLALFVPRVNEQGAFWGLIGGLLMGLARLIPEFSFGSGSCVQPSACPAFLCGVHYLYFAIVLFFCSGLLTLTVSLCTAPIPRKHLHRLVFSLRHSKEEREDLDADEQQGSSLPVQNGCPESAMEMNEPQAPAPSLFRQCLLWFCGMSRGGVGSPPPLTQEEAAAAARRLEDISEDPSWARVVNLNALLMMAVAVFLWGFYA
Course of the total amounts of impurities during storage [1],"Total amount of impurities (%) ([1]; storage at 25° C., 0 month)","Total amount of impurities (%) ([1]; storage at 25° C., 3 month)","Total amount of impurities (%) ([1]; storage at 25° C., 6 month)","Total amount of impurities (%) ([1]; storage at 40° C., 0 month)","Total amount of impurities (%) ([1]; storage at 40° C., 1 month)","Total amount of impurities (%) ([1]; storage at 40° C., 3 month)","Total amount of impurities (%) ([1]; storage at 40° C., 6 month)",Compound,Inhibitory activity against SGLT2 [2]
maintained nearly constant for 3 months,0.07,0.07,,0.07,0.07,0.08,,"CCc1ccc(Cc2ccc3c(c2)[C@]2(OC3)O[C@H](CO)[C@@H](O)[C@H](O)[C@H]2O)cc1 [Co-crystal with sodium acetate, 1,1-anhydro-1-C-[5-(4-ethylphenyl)methyl-2-(hydroxymethyl)phenyl]-β-D-glucopyranose]",
maintained nearly constant for 6 months,0.30,0.29,0.32,0.30,0.32,0.31,0.36,"CCc1ccc(Cc2ccc3c(c2)[C@]2(OC3)O[C@H](CO)[C@@H](O)[C@H](O)[C@H]2O)cc1 [Monohydrate crystal, 1,1-anhydro-1-C-[5-(4-ethylphenyl)methyl-2-(hydroxymethyl)phenyl]-β-D-glucopyranose]",

# Second part, the compound before the results:
Compound,Course of the total amounts of impurities during storage [1],"Total amount of impurities (%) ([1]; storage at 25° C., 0 month)","Total amount of impurities (%) ([1]; storage at 25° C., 3 month)","Total amount of impurities (%) ([1]; storage at 25° C., 6 month)","Total amount of impurities (%) ([1]; storage at 40° C., 0 month)","Total amount of impurities (%) ([1]; storage at 40° C., 1 month)","Total amount of impurities (%) ([1]; storage at 40° C., 3 month)","Total amount of impurities (%) ([1]; storage at 40° C., 6 month)",Inhibitory activity against SGLT2 [2]
"CCc1ccc(Cc2ccc3c(c2)[C@]2(OC3)O[C@H](CO)[C@@H](O)[C@H](O)[C@H]2O)cc1 [Amorphous form, 1,1-anhydro-1-C-[5-(4-ethylphenyl)methyl-2-(hydroxymethyl)phenyl]-β-D-glucopyranose]",increased time-dependently,0.35,0.66,0.87,0.35,0.62,0.92,1.46,
"CCc1ccc(Cc2ccc3c(c2)[C@]2(OC3)O[C@H](CO)[C@@H](O)[C@H](O)[C@H]2O)cc1 [Co-crystal with potassium acetate, 1,1-anhydro-1-C-[5-(4-ethylphenyl)methyl-2-(hydroxymethyl)phenyl]-β-D-glucopyranose]",maintained nearly constant for 3 months,0.08,0.08,,0.08,0.08,0.08,,
CCc1ccc(Cc2ccc3c(c2)[C@]2(OC3)O[C@H](CO)[C@@H](O)[C@H](O)[C@H]2O)cc1 [Formula (B)],,,,,,,,,excellent inhibitory activity
